# Measured values taken from patent US20080194456A1, “Compositions And Methods Related To An Intestinal Inflammation And Uses Therefor” (The General Hospital Corporation, priority 2004, published 2008).
# B1: IL-4: cytokine added to SW480 cells (protein, UniProt P05112 25-153, looked up)
# Interleukin-4: HKCDITLQEIIKTLNSLTEQKTLCTELTVTDIFAASKNTTEKETFCRAATVLRQFYSHHEKDTRCLGATAQQFHRHKQLIRFLKRLDRNLWGLAGLNSCPVKEANQSTLENFLERLKTIMREKYSKCSS
# B2: IFNγ: cytokine interferon gamma added to SW480 cells (protein, UniProt P01579 24-161, looked up)
# Interferon gamma: QDPYVKEAENLKKYFNAGHSDVADNGTLFLGILKNWKEESDRKIMQSQIVSFYFKLFKNFKDDQSIQKSVETIKEDMNVKFFNSNKKKRDDFEKLTNYSVTDLNVQRKAIHELIQVMAELSPAAKTGKRKRSQMLFRG
# B3: TNFβ: cytokine as printed in b202; figure legend b47 names TNFα (protein, UniProt P01374 35-205, looked up)
# Lymphotoxin-alpha: LPGVGLTPSAAQTARQHPKMHLAHSTLKPAAHLIGDPSKQNSLLWRANTDRAFLQDGFSLSNNSLLVPTSGIYFVYSQVVFSGKAYSPKATSSPLYLAHEVQLFSSQYPFHVPLLSSQKMVYPGLQEPWLHSMYHGAAFQLTQGDQLSTHTDGIPHLVLSPSTVFFGAFAL
# What was measured:
# [1] = tested on: NOD2 mRNA expression in SW480 cells; experiment: Northern blot analysis of NOD2 mRNA expression in SW480 cells; assay type: cell-based, human
# Experimental: FIGS. 8A-8D are photographs of Northern blots showing the effect of cytokines on Nod2 mRNA expression in SW480 cells. FIG. 8A is a Northern blot analysis of Nod2 mRNA expression in SW480 cells treated with 10 ng/ml of IFNγ, TNFα, IL-1β, IL-4 and TGFβ for six hours. As a positive control for CARD15/NOD2, human PBMC was used. […] In each of FIGS. 8A-8C, expression of Nod2 is shown relative to GAPDH expression.
# Regulation of NOD2 expression had not been previously characterized. In order to better understand how NOD2 expression might vary in the context of mucosal inflammation, the effects of cytokines on epithelial NOD2 expression were studied using the SW480 cell line.
# [2] = tested on: grim-19 mRNA in Caco-2 cells; experiment: Real time RT-PCR of grim-19 mRNA in Caco-2 cells; assay type: cell-based, human; conditions: for grim-19 mRNA levels: Caco-2 cells harboring plasmid encoding siRNA
# Experimental: Total RNA of IEC lines were extracted using Trizol (INVITROGEN) according to the manufacturer's instructions. For reverse transcription, 2 μg of total RNA was transcribed with RT PCR reagents provided in the SUPERSCRIPT FIRST-STRAND SYNTHESIS SYSTEM (INVITROGEN). Real time RT-PCR was performed in an ABI Prism 7000 Sequence Detector using SYBR Green JumpStart™ detection system. Briefly, 50 ng of the reversed transcribed cDNA were used for each PCR reaction with 200 nM of forward and reverse primers. Primers used for PCR had the following sequences: Forward 5-[…]-3, Reverse 5-[…]-3 (GRIM-19, 194 bp); Forward 5-[…]-3, Feverse 5-[…]-3 (glyceraldehyde-3-phosphate dehydrogenase [GAPDH], 440 bp). The following PCR program was used: 50° C. for 2 minutes, then 95° C. for 10 minutes followed by 40 cycles of 95° C. for 15 seconds, 60° C. for 15 seconds and 72° C. for 15 seconds. The threshold cycle (CT) values were obtained for the reactions reflecting quantity of the template in the sample. GRIM-19 Delta CT (ΔCT) was calculated by subtracting the GAPDH CT value from the GRIM-19 CT value and thus, represented the relative quantity of the target molecule after normalizing with the internal standard GAPDH. The GRIM-19 ΔCT values of Caco-2 cells infected with Salmonella, or transfected with pcDNA4/HisMAX-GRIM 19 were expressed as the percentage of GRIM-19 ΔCT values of control Caco-2 cells.
# [3] = tested on: S. typhimurium; conditions: for percentage of intracellular bacteria: transfected Caco-2 cells, two hour infection at MOI=10, one hour gentamicin, relative to untransfected Caco-2 cells = 100%, mean ±SEM
# [4] = tested on: NOD1 mRNA expression in SW480 cells; experiment: Northern blot analysis of NOD1 mRNA expression in SW480 cells treated with cytokines; assay type: cell-based, human; conditions: 10 ng/ml cytokine for six hours, Northern blot relative to GAPDH
# Experimental: FIGS. 3A, B, C, D, E, and F are photographs showing Northern blots. […] Cells were treated with IFNγ for six hours. […] Cells were treated with 100 ng/ml IFNγ.
# Regulation of NOD1 expression had not been described previously. […] The effect of IFNγ on NOD1 mRNA expression is time and concentration dependent manner as assessed by Northern blot analysis (FIG. 3C-3E).
# [5] = tested on: S. typhimurium; experiment: Bacterial invasion assay in HEK293 cells; assay type: cell-based, Salmonella enterica serovar Typhimurium; conditions: MDP-LD stimulated, two hour infection at MOI=10, compared to untransfected HEK293
# Experimental: (§1) FIGS. 19A and 19B are graphs showing that GRIM-19 acts downstream of NOD2 and is required from NF-κB activation. […] NF-κB activity was determined in the absence or presence of 1 μg of MDP-LD. grim-19 mRNA level was measured by RT-PCR using specific primers. […] After a two hour period of infection with S. typhimurium at MOI=10, invasive bacteria were quantified as described above. * p<0.05
# Invasion assays were performed with Salmonella enterica serovar Typhimurium or Escherichia coli TOP10 (Invitrogen). Cell monolayers were seeded in 24-well tissue culture plate with 10^5 cells/well and incubated for 20 hours. Monolayers were then infected in 1 ml of cell culture medium without antibiotic and with heat-inactivated FCS at a multiplicity of infection (MOI) of 10 bacteria per epithelial cell. After a two hour incubation period at 37° C., the monolayers were washed two times with PBS. Fresh cell culture medium containing 100 μg/ml of gentamicin (Sigma) was then added for one hour to kill any extracellular bacteria. The epithelial cells were then lysed with 1% Triton X-100 in deionized water. Samples of cell lysates were diluted and plated onto Luria-Bertani agar plates to determine the number of colony forming units (cfu), which corresponds to the number of intracellular bacteria.
# [6] = tested on: Caco-2 cells; conditions: Caco-2 cells transfected (overexpression), adenylate kinase release
# [7] = tested on: NOD2 protein in SW480 cells; experiment: Western blot of NOD2 protein in SW480 cells; assay type: cell-based, human; conditions: TNFα stimulation, time-dependent
# Description: FIGS. 9A-9D depict NOD2 protein and its expression in SW480 cells. FIG. 9A is a schematic diagram showing the location of polypeptide sequences of NOD2 for immunization. FIGS. 9B, 9C, and 9D are photographs of Western blots. […] Untransfected COS7 cells were used as a negative control. […] Transiently transfected COS7 cells were immunoprecipitated with affinity purified (a.p.) anti-NOD2 antiserum (HM2559 a.p.), then immunoblotted with affinity purified biotinylated anti-NOD2 antiserum (b-HM2563 a.p.). […] As a positive control for NOD2 protein, lysates of COS7 cells transfected with pCMV FLAG-NOD2 was used.
# Previous reported efforts had not been successful in detecting active NOD2 protein in vitro or in vivo. To detect the expression of active CARD15/NOD2 protein, anti-NOD2 sera (FIG. 9A) were generated. […] Increased production of TNFα has been noted in the mucosa of patients with Crohn's disease.
# [8] = tested on: NOD2 mediated NF-κB activation; experiment: NF-κB activation assay (luciferase reporter) in HEK293 cells; assay type: cell-based, human; conditions: HEK293 transfected with NOD2, 1 μg MDP-LD stimulation; relative to HEK293 transfected only with NOD2 or with pSUPER control vector
# Experimental: as §1
# HEK293 cells were transfected overnight with 1 ng of NOD2, 10 ng of grim-19 siRNA plus 1 ng of pIV luciferase reporter plasmid and renilla plasmid. At the same time, 1 μg of MDP-LD (Sigma) was added. After twenty-four hours, luciferase activity was measured using the Dual-Luciferase Reporter Assay System (Promega, Madison, Wis.) according to the manufacturer's instructions and normalized relative to renilla activity.
# [9] = tested on: grim-19 mRNA in HEK293 cells; experiment: RT-PCR of grim-19 mRNA in HEK293 cells; assay type: cell-based, human; conditions: HEK293 cells transfected with NOD2 and siRNA
# Experimental: as §1
# Total RNA of IEC lines were extracted using Trizol (INVITROGEN) according to the manufacturer's instructions. For reverse transcription, 2 μg of total RNA was transcribed with RT PCR reagents provided in the SUPERSCRIPT FIRST-STRAND SYNTHESIS SYSTEM (INVITROGEN). Real time RT-PCR was performed in an ABI Prism 7000 Sequence Detector using SYBR Green JumpStart™ detection system. […] The threshold cycle (CT) values were obtained for the reactions reflecting quantity of the template in the sample. GRIM-19 Delta CT (ΔCT) was calculated by subtracting the GAPDH CT value from the GRIM-19 CT value and thus, represented the relative quantity of the target molecule after normalizing with the internal standard GAPDH. The GRIM-19 ΔCT values of Caco-2 cells infected with Salmonella, or transfected with pcDNA4/HisMAX-GRIM 19 were expressed as the percentage of GRIM-19 ΔCT values of control Caco-2 cells.
# [10] = tested on: NOD1 protein in SW480 cells; experiment: Immunoprecipitation / Western blot of NOD1 protein in SW480 cells; assay type: cell-based, human; conditions: 100 ng/ml IFNγ, 6-48 hours, immunoprecipitation and immunoblot
# Description: FIGS. 4A and 4B are photographs of Western blots. […] Anti-HA monoclonal antibody and biotinylated anti-CARD4/NOD1 antiserum (HM3847) detected NOD1 protein in COS7 cells transiently transfected with pCl CARD4-HA. […] Lysates from COS7 cells transiently transfected with pCl CARD4-HA were used as positive control.
# To investigate the expression of NOD1 protein, anti-NOD1 sera were generated. The specificity and the sensitivity were confirmed using lysates from COS7 cells transiently transfected with the HA tagged CARD4 expression plasmid, pCl CARD4-HA (FIG. 4A). Consistent with the regulation of mRNA expression, NOD1 protein was also augmented in SW480 cells by IFNγ stimulation (FIG. 4B).
# [11] = tested on: human NOD1 promoter; experiment: NOD1 promoter luciferase reporter assay in SW480 cells; assay type: cell-based; conditions: SW480 cells transfected with pGL-2128, 100 ng/ml IFNγ for sixteen hours
# Experimental: FIGS. 5A-5D are panels showing that IFNγ activated the human NOD1 promoter. FIG. 5A is a schematic diagram depicting the CARD4/NOD1 gene. Three IRF-1 binding motifs (IRF-1A, IRF-1B, and IRF-1C) are indicated as black boxes (▪). FIG. 5B is a schematic diagram depicting pGL Nod 1-luciferase deletion mutants. FIGS. 5C and 5D are graphs showing luciferase activity in SW480 cells were transiently transfected with 500 ng/well of the indicated expression plasmid. Ten hours after transfection, cells were cultured for a further sixteen hours with 100 ng/ml of IFNγ and then luciferase activity was measured. Black bars indicate the presence of IFNγ. White bars indicate the control conditions.
# To identify the transcriptional regulation of NOD1, a series of luciferase reporter vectors was constructed, containing up to 2,128 base pairs corresponding to the DNA sequence upstream of base 1 and extending 21 base pairs into the first exon of NOD1 (FIGS. 5A and 5B). Luciferase activity in SW480 cells transfected with a vector containing the entire 2,128 base pairs upstream DNA (pGL-2128) was 125±16 fold higher than that obtained with the empty pGL3 basic vector.
molecule,measurement,setting,value
C[C@@H]1C[C@@H]([C@H](O)CC2CC(=O)NC(=O)C2)C(=O)[C@@H](C)C1 [Cycloheximide],second peak of NOD2 mRNA expression (at twenty-four hours),[1]; SW480 cells stimulated with 10 ng/ml TNFα,inhibited
IFN-α,grim-19 mRNA expression,"[2]; Caco-2 cells stimulated with RA, IFN-α or both, real time RT-PCR",did not show increased GRIM-19 expression
same,percentage of intracellular bacteria / invasive ability of S. typhimurium,"[3]; Caco-2 cells stimulated with RA, IFN-α or both, two hour incubation",remained the same
IL-β: cytokine as printed in b202; figure legend b47 names IL-1β,NOD1 mRNA expression,[4],did not affect
NOD2: NOD2 protein expressed from Flag-tagged mammalian expression vector pCMVFlag-NOD2,invasive ability of S. typhimurium,[5],decreased
same,cell death,[6],did not induce cell death
TGFβ,NOD1 mRNA expression,[4],did not affect
TNFα,NOD2 mRNA expression,"[1]; SW480 cells, TNFα, concentration and time-dependent",up-regulated
same,NOD2 protein,[7],upregulated
"grim-19 control siRNA: grim-19 control siRNA (sequence 2, atcgaggacttcgaggctc), which did not affect grim-19 mRNA (guide ATCGAGGACTTCGAGGCTC; chemistry not given here) [reference compound]",grim-19 mRNA levels,[2],did not affect
same,NF-κB activation,[8],no significant effect
same,grim-19 mRNA level,[9],did not knockdown
same,percentage of intracellular bacteria,[3],not observed
"grim-19 siRNA-1: siRNA expressed from pSUPER vector, 19-residue sequence 1-gtgtgggatactgcgagta specific to human grim-19 cDNA (guide GTGTGGGATACTGCGAGTA; expressed from pSUPER vector)",grim-19 mRNA levels,[2],significantly decreased
same,NF-κB activation,[8],50%
same,grim-19 mRNA level,[9],significantly decreased
same,invasive ability of S. typhimurium,[5],reversed
same,invasive ability of S. typhimurium in stimulated Caco-2 cells,"[3]; Caco-2 cells stimulated with RA and IFN-α, compared with non-stimulated cells",restored
same,percentage of intracellular bacteria,[3],162.0%±43.8%
B1,NOD1 mRNA expression,[4],did not affect
B2,NOD1 mRNA expression,[4],augmented
same,NOD1 protein,[10],augmented
same,increase of luciferase activity,[11],80%
B3,NOD1 mRNA expression,[4],did not affect
